In patent US8906917B2, “Pyrimidine cyclohexyl glucocorticoid receptor modulators” (Corcept Therapeutics, Inc., priority 2011, dated 2014):

Tests used:
[1] = target: T1, Human Recombinant Glucocorticoid Receptor (Homo sapiens, UniProt P04150); experiment: Glucocorticoid receptor binding displacement assay with 3H-dexamethasone; settings: displacement of 2.5 nM 3H-dexamethasone, 2.5 hrs at 4° C.; Ki from IC50 by Cheng-Prusoff; read-out: GR Binding Ki
T1 construct: This GR was a full-length steroid hormone receptor; host or cells: recombinant baculovirus-infected insect cells
T1 sequence (P04150 1-777): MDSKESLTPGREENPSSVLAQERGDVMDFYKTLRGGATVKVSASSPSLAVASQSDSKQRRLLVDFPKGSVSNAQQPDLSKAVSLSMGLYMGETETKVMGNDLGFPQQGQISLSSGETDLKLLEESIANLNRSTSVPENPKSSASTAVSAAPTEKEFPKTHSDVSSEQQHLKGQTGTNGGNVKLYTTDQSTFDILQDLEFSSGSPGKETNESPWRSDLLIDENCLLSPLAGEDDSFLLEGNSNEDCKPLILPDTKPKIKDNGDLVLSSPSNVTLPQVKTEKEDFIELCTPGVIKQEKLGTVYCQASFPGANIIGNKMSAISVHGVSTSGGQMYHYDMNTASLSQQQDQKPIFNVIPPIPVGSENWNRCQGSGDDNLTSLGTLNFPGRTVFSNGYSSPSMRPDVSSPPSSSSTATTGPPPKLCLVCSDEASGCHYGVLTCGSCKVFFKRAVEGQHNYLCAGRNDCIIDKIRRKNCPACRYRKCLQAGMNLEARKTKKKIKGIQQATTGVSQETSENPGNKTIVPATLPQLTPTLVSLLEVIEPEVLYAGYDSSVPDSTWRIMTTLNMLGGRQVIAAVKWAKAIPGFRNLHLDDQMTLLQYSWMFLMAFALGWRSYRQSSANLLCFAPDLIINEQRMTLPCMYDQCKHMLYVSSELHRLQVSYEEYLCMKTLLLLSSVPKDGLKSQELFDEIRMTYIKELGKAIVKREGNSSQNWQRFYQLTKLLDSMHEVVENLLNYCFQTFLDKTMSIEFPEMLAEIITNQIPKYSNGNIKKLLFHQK
Procedure: Binding protocol: Compounds were tested in a binding displacement assay using human recombinant glucocorticoid receptor with ^3H-dexamethasone as the ligand. The source of the receptor was recombinant baculovirus-infected insect cells. This GR was a full-length steroid hormone receptor likely to be associated with heat-shock and other endogenous proteins.
For the IC50 determinations, test compounds were tested at 6 concentrations in duplicate. Test compounds were diluted from 10 mM stock in 100% DMSO. The tested solutions were prepared at 2× final assay concentration in 2% DMSO/assay buffer.
All reagents and the assay plate were kept on ice during the addition of reagents. The reagents were added to wells of a v-bottomed polypropylene plate in the following order: 25 μl of 10 nM 3H-dexamethasone solution, 50 μl of TB/NSB/compound solution and 25 μl of 2 nM GR solution. After the additions, the incubation mixture was mixed and incubated for 2.5 hrs at 4° C.
Alter 2.5 hrs incubation, unbound counts were removed with dextran coated charcoal (DCC) as follows: 15 μl of DCC solution (10% DCC in assay buffer) was added to all wells and mixed (total volume 115 μl). The plate was centrifuged at 4000 rpm for 10 minutes at 4° C. 75 μl of the supernatants was carefully pipetted into an optiplate. 150 μl of scintillation cocktail were added (Microscint-40, Perkin Elmer). The plate was vigorously shaken for approx. 10 minutes and counted on Topcount.
The IC50 values were converted to Ki (the inhibition constant) using the Cheng-Prusoff equation.
Reagents: Assay buffer: 10 mM potassium phosphate buffer pH 7.6 containing 5 mM DTT, 10 mM sodium molybdate, 100 μM EDTA and 0.1% BSA.

[2] = target: T2, glucocorticoid receptors (endogenous) in SW1353/MMTV-5 cells (Homo sapiens, UniProt P04150); experiment: GR functional assay using SW1353/MMTV-5 cells (MMTV-GRE luciferase reporter); format: cell-based
T2 construct: contains endogenous glucocorticoid receptors; endogenous in cells; host or cells: SW1353/MMTV-5 (human chondrosarcoma, stably transfected with pMAMneo-Luc reporter)
T2 sequence (P04150 1-777): T1 sequence (P04150 1-777)
Procedure: SW1353/MMTV-5 is an adherent human chondrosarcoma cell line that contains endogenous glucocorticoid receptors. It was transacted with a plasmid (pMAMneo-Luc) encoding firefly luciferase located behind a glucocorticoid-responsive element (GRE) derived from a viral promoter (long terminal repeat of mouse mammary tumor virus). A stable cell line SW1353/MMTV-5 was selected with geneticin, which was required to maintain this plasmid.
SW1353/MMTV-5 cells were distributed in 96-well plates and incubated in medium (without geneticin) for 24 hrs.

COCCn1c(=O)[nH]c([C@H]2CC[C@H](c3ccccc3)CC2)c(Cc2cccc(C(F)(F)F)c2)c1=O [Compound 13g, (E)-3-(2-Methoxy-ethyl)-6-(4-phenyl-cyclohexyl)-5-(3-trifluoromethyl-benzyl)-1H-pyrimidine-2,4-dione]
Ki [1]: > 0.01 µM
Ki [2]: > 0.1 µM

Cn1c(=O)[nH]c([C@H]2CC[C@H](c3ccccc3)CC2)c(Cc2ccccc2)c1=O [Compound 13h]
Ki [1]: > 0.01 µM
Ki [2]: 0.05 to 0.1 µM
